Consider two compounds from BindingDB's records for doi:10.1021/acs.jmedchem.1c01473 (Chapman University School of Pharmacy, 2022).

For the assay, the target named is Small conductance calcium-activated potassium channel protein 2 (Rattus norvegicus, UniProt P70604). Nature of the assay: Potentiation of rat KCa2.2a expressed in HEK293 cells assessed as increase in calcium response at -90 mV holding potential measured at 1 to 2 days by patch clamp electrophysiology.
Chain of Small conductance calcium-activated potassium channel protein 2 (P70604 whole entry): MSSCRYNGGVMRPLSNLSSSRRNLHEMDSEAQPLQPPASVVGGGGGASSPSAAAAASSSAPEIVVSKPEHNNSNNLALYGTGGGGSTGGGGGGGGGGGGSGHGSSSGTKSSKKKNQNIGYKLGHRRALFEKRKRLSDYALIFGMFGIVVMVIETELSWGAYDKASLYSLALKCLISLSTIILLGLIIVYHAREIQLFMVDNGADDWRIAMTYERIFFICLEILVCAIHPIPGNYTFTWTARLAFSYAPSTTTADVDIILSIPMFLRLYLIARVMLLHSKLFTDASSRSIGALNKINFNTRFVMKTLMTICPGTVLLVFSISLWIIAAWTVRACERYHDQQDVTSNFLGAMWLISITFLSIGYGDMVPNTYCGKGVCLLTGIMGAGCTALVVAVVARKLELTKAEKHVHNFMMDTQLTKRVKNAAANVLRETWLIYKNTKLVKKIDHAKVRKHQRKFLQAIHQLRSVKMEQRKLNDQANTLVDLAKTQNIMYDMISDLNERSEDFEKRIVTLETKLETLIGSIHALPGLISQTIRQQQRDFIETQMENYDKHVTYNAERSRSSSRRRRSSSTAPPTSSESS

With `Cc1cc(Nc2ccc(F)c(Cl)c2)nc(-n2nc(C)cc2C)n1`, the “EC50” value came out at 110 nM.
Turning to `Cc1cc(Nc2cc(Cl)ccc2F)nc(-n2nc(C)cc2C)n1`, the “EC50” value turned out to be 91 nM.
